In brackets after ≈: the same amount, converted by molar mass. Positions of bridges follow the written chain, without caps; N, C: chain ends. Non-standard residues stand in square brackets, D forms with d. Residues, ends and D or L forms follow the SMILES beside them. *: point of attachment. Ileψ(thiazoline)Cys = CC[C@H](C)[C@H](N)C1=N[C@H](C(=O)*)CS1; dOrn = NCCC[C@@H](N)C(=O)O
Tests used:
Type in all cases: functional
[1] = tested on: Staphylococcus aureus; experiment: Antibacterial activity against homo-Methicillin-resistant and tetracycline-resistant and rifampicin-resistant Staphylococcus aureus deltaIP-rifR::vraSH14 by Etest method
[2] = tested on: Staphylococcus aureus; experiment: Antibacterial activity against hetero-vancomycin-intermediate Staphylococcus aureus Mu3 by Etest method
[3] = tested on: Staphylococcus aureus; experiment: Antibacterial activity against methicillin-susceptible, tetracycline-resistant and chloramphenicol-resistant Staphylococcus aureus H14-KVR by Etest method
[4] = tested on: Staphylococcus aureus; experiment: Antibacterial activity against homo-Methicillin-resistant and tetracycline-resistant Staphylococcus aureus H14 harboring vraS S329L mutant gene by Etest method
[5] = tested on: Staphylococcus aureus; experiment: Antibacterial activity against methicillin-susceptible, tetracycline-resistant and chloramphenicol-resistant Staphylococcus aureus deltaIP-KVR by Etest method
[6] = tested on: Staphylococcus aureus; experiment: Antibacterial activity against homo-Methicillin-resistant and tetracycline-resistant Staphylococcus aureus deltaIP::vraSH14 harboring vraSH14 S329L mutant gene by Etest method
[7] = tested on: Staphylococcus aureus; experiment: Antibacterial activity against hetero-Methicillin-resistant and tetracycline-resistant Staphylococcus aureus deltaIP by Etest method
[8] = tested on: Staphylococcus aureus; experiment: Antibacterial activity against hetero-Methicillin-resistant and tetracycline-resistant and rifampicin-resistant Staphylococcus aureus deltaIP-rifR harboring RpoB H481Y mutant gene by Etest method

Compound | MIC [1] [µg/mL] | MIC [2] [µg/mL] | MIC [3] [µg/mL] | MIC [4] [µg/mL] | MIC [5] [µg/mL] | MIC [6] [µg/mL] | MIC [7] [µg/mL] | MIC [8] [µg/mL]
CCCCCCCCCC(=O)N[C@@H](Cc1c[nH]c2ccccc12)C(=O)N[C@H](CC(N)=O)C(=O)N[C@@H](CC(=O)O)C(=O)N[C@@H]1C(=O)NCC(=O)N[C@@H](CCCN)C(=O)N[C@@H](CC(=O)O)C(=O)N[C@H](C)C(=O)N[C@@H](CC(=O)O)C(=O)NCC(=O)N[C@H](CO)C(=O)N[C@@H]([C@H](C)CC(=O)O)C(=O)N[C@@H](CC(=O)c2ccccc2N)C(=O)O[C@@H]1C | 2 (≈ 1.23 µM) | 2 (≈ 1.23 µM) | 0.5 (≈ 0.309 µM) | 1.75 (≈ 1.08 µM) | 0.5 (≈ 0.309 µM) | 1.75 (≈ 1.08 µM) | 0.75 (≈ 0.463 µM) | 0.5 (≈ 0.309 µM)
CC[C@H](C)[C@H](N)C1=N[C@H](C(=O)N[C@@H](CC(C)C)C(=O)N[C@H](CCC(=O)O)C(=O)N[C@H](C(=O)N[C@H]2CCCCNC(=O)[C@H](CC(N)=O)NC(=O)[C@@H](CC(=O)O)NC(=O)[C@H](Cc3cnc[nH]3)NC(=O)[C@@H](Cc3ccccc3)NC(=O)[C@H]([C@@H](C)CC)NC(=O)[C@@H](CCCN)NC2=O)[C@@H](C)CC)CS1 [BACITRACIN] ({Ileψ(thiazoline)Cys}-L[dE]IK[dOrn]I[dF]H[dD]N; lactam 4-C) | 96 (≈ 67.5 µM) | 256 (≈ 180 µM) | 4 (≈ 2.81 µM) | 96 (≈ 67.5 µM) | 4 (≈ 2.81 µM) | 96 (≈ 67.5 µM) | 32 (≈ 22.5 µM) | 24 (≈ 16.9 µM)
C[C@@H]1O[C@@H]1P(=O)(O)O [FOSFOMYCIN] | 96 (≈ 695 µM) | > 1020 | 0.38 (≈ 2.75 µM) | 96 (≈ 695 µM) | 0.38 (≈ 2.75 µM) | 96 (≈ 695 µM) | 1 (≈ 7.24 µM) | 1.5 (≈ 10.9 µM)
C[C@@H](O)[C@H]1C(=O)N2C(C(=O)O)=C(SCCNC=N)C[C@H]12 [IMIPENEM ANHYDROUS] | > 32 | > 32 | 0.19 (≈ 0.635 µM) | > 32 | 0.19 (≈ 0.635 µM) | > 32 | 0.75 (≈ 2.51 µM) | 1 (≈ 3.34 µM)
Cc1onc(-c2ccccc2)c1C(=O)N[C@@H]1C(=O)N2[C@@H]1SC(C)(C)[C@@H]2C(=O)O [OXACILLIN] | > 256 | > 256 | 1.5 (≈ 3.74 µM) | > 256 | 1.5 (≈ 3.74 µM) | > 256 | 6 (≈ 14.9 µM) | 5 (≈ 12.5 µM)
CO[C@H]1/C=C/O[C@@]2(C)Oc3c(C)c(O)c4c(O)c(c(/C=N/N5CCN(C)CC5)c(O)c4c3C2=O)NC(=O)/C(C)=C\C=C\[C@H](C)[C@H](O)[C@@H](C)[C@@H](O)[C@@H](C)[C@H](OC(C)=O)[C@@H]1C [RIFAMPIN] | > 32 | 0.006 (≈ 0.00729 µM) | 0.004 (≈ 0.00486 µM) | 0.004 (≈ 0.00486 µM) | 0.004 (≈ 0.00486 µM) | 0.004 (≈ 0.00486 µM) | 0.004 (≈ 0.00486 µM) | > 32
CN[C@H](CC(C)C)C(=O)N[C@H]1C(=O)N[C@@H](CC(N)=O)C(=O)N[C@H]2C(=O)N[C@H]3C(=O)N[C@H](C(=O)N[C@H](C(=O)O)c4cc(O)cc(O)c4-c4cc3ccc4O)[C@H](O)c3ccc(c(Cl)c3)Oc3cc2cc(c3O[C@@H]2O[C@H](CO)[C@@H](O)[C@H](O)[C@H]2O[C@H]2C[C@](C)(N)[C@H](O)[C@H](C)O2)Oc2ccc(cc2Cl)[C@H]1O [VANCOMYCIN] | 3 (≈ 2.07 µM) | 3 (≈ 2.07 µM) | 0.75 (≈ 0.518 µM) |  | 0.75 (≈ 0.518 µM) |  |  | 
GENTAMICIN | 1 | 384 | 0.75 | 0.75 | 0.75 | 0.75 | 0.75 | 1
